From US8586603B2, “Aminotetraline derivatives” (priority 2009, dated 2013)
pEC50, pKi: −log10 of the molar value. Where “and” joins values, the source holds several entries; their conditions need not be identical. Equal values may be shown once. Read-outs that look alike come from different tables or passages of the source.

Experiments:
[1] = biological target: T1, human dopamine receptor subtype hD4.4 (Homo sapiens, UniProt P21917); test: Receptor binding assay, [3H]spiperone competition, CHO cell membranes; conditions: for pKi: means of 2-8 individual experiments each done as triplicate; for selectivity ratio hD4.4: vs p5-HT1a
T1 construct: expressed in transfected cells; host or cells: CHO
T1 sequence (P21917 1-419): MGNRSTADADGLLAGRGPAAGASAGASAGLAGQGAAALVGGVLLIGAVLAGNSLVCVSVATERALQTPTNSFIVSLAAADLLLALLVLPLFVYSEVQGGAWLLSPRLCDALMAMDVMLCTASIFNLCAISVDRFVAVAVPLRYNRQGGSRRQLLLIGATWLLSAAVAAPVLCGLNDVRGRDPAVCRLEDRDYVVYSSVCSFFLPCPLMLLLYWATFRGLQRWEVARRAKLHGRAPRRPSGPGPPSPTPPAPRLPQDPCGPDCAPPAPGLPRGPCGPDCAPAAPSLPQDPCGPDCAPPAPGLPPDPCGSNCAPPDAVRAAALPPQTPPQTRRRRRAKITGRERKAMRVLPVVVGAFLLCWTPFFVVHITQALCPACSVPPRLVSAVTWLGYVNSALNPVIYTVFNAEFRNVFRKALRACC
Procedure: Receptor binding data were determined when performing competition binding assays with membrane preparations of cloned cells (stably transfected Chinese Hamster Ovary cells (CHO)) expressing the human receptors and the following radioligands: [^3H]spiperone at the human dopamine receptor subtypes hD2long, hD2short, D3, and hD4.4. […].
(§1) Selectivity ratios were calculated by division of the Ki values of the various compounds at the respective receptors through the Ki values at the 5HT1a receptor.

human 5-HT1a receptor = biological target: T2, human 5-HT1a receptor (Homo sapiens, UniProt P08908); test: [35S]GTPγS functional assay; format: biochemical; conditions: for Emax: read-out: intrinsic activity [% rel. to serotonin]
T2 construct: expressed in transfected cells
T2 sequence (P08908 1-422): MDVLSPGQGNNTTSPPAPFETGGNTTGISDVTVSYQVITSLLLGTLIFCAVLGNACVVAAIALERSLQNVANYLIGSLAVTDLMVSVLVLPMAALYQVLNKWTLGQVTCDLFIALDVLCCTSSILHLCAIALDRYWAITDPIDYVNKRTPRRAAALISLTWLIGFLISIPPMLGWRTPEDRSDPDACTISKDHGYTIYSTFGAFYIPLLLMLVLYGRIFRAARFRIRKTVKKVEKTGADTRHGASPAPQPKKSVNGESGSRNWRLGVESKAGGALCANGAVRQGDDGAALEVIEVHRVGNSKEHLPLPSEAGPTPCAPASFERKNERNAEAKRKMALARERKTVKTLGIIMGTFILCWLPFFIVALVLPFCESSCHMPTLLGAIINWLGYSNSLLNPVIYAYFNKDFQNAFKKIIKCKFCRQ
Procedure: Specific binding of [^35S]GTPγS is stimulated by activation of the stably expressed human 5-HT1a receptor in a dose-dependent way by agonists for this GPCR and is determined by measuring the radioactive label of the membrane. Non-linear regression analysis of the resulting dose-response curves yields the EC50 value in [nM] representing the half maximal concentration which is necessary to activate the receptor completely.

[2] = biological target: T3, porcine striatal pD1 dopamine receptor (Sus scrofa, UniProt P50130); test: Receptor binding assay, [3H]SCH 23390 competition, porcine striatal membranes; conditions: for pKi: means of 2-8 individual experiments each done as triplicate; for selectivity ratio pD1: vs p5-HT1a
T3 construct: membrane homogenates prepared from porcine striatal or cortical tissue; from tissue; host or cells: porcine striatum

[3] = biological target: T4, porcine cortical p5-HT1a serotonin receptor (Sus scrofa, UniProt A0A4X1UTF5); test: Receptor binding assay, [3H]WAY100635 competition, porcine cortical membranes; conditions: for pKi: means of 2-8 individual experiments each done as triplicate; for selectivity ratio p5-HT1a: reference receptor of the ratio (=1)
T4 construct: membrane homogenates prepared from porcine striatal or cortical tissue; from tissue; host or cells: porcine cortex
T4 sequence (A0A4X1UTF5 1-422): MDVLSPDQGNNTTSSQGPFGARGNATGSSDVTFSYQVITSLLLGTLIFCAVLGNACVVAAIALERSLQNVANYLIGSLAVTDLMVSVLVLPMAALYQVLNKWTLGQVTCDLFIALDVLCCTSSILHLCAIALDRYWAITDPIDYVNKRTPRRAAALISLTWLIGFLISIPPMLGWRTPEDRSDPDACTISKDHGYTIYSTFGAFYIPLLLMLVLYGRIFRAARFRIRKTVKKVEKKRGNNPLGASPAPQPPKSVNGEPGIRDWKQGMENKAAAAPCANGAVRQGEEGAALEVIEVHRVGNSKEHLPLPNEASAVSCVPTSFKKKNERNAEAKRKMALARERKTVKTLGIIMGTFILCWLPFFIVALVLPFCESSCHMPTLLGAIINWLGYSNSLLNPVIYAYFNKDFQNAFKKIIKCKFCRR

[4] = biological target: T5, porcine cortical p5-HT2 serotonin receptor (Sus scrofa, UniProt P50129); test: Receptor binding assay, [3H]ketanserin competition, porcine cortical membranes; conditions: for pKi: means of 2-8 individual experiments each done as triplicate; for selectivity ratio p5-HT2: vs p5-HT1a
T5 construct: membrane homogenates prepared from porcine striatal or cortical tissue; from tissue; host or cells: porcine cortex

[5] = biological target: porcine cortical pα2 adrenergic receptor; test: Receptor binding assay, [3H]RX821002 competition, porcine cortical membranes; conditions: means of 2-8 individual experiments each done as triplicate
[6] = biological target: T6, human dopamine receptor subtype hD3 (Homo sapiens, UniProt P35462); test: Receptor binding assay, [3H]spiperone competition, CHO cell membranes; conditions: for pKi: means of 2-8 individual experiments each done as triplicate; for selectivity ratio hD3: vs p5-HT1a
T6 construct: expressed in transfected cells; host or cells: CHO
Procedure: (§2) Receptor binding data were determined when performing competition binding assays with membrane preparations of cloned cells (stably transfected Chinese Hamster Ovary cells (CHO)) expressing the human receptors and the following radioligands: [^3H]spiperone at the human dopamine receptor subtypes hD2long, hD2short, D3, and hD4.4.
as §1

[7] = biological target: T7, human dopamine receptor subtype hD2short (Homo sapiens, UniProt P14416); test: as above; conditions: for pKi: means of 2-8 individual experiments each done as triplicate; for selectivity ratio hD2short: vs p5-HT1a
T7 construct: expressed in transfected cells; host or cells: CHO
Procedure: as §2, §1

[8] = biological target: T8, human dopamine receptor subtype hD2long (Homo sapiens, UniProt P14416); test: as above; conditions: for pKi: means of 2-8 individual experiments each done as triplicate; for selectivity ratio hD2long: vs p5-HT1a
T8 construct: expressed in transfected cells; host or cells: CHO
Procedure: as §2, §1

[9] = biological target: T9, porcine cortical pα1 adrenergic receptor; test: Receptor binding assay, [3H]prazosin competition, porcine cortical membranes; conditions: means of 2-8 individual experiments each done as triplicate
T9 construct: Ki pα1; other: means of 2-8 individual experiments each done as triplicate

[10] = test system: porcine cortical pα1 adrenergic receptor; test: as above; conditions: vs p5-HT1a
[11] = mean values of 2-8 individual experiments

T8 sequence (P14416 whole entry): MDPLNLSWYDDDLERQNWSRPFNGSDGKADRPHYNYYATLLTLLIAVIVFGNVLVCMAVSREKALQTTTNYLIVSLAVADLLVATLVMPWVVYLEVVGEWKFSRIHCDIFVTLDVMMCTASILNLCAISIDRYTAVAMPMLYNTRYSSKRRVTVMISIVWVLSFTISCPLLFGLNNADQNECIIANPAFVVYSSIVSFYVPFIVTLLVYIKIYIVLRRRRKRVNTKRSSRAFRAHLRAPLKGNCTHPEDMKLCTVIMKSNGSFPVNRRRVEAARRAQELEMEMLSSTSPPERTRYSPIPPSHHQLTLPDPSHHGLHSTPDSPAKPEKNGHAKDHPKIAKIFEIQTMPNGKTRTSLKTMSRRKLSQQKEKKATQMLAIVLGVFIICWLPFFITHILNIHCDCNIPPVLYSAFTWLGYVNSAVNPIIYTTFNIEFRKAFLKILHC
T5 sequence (P50129 whole entry): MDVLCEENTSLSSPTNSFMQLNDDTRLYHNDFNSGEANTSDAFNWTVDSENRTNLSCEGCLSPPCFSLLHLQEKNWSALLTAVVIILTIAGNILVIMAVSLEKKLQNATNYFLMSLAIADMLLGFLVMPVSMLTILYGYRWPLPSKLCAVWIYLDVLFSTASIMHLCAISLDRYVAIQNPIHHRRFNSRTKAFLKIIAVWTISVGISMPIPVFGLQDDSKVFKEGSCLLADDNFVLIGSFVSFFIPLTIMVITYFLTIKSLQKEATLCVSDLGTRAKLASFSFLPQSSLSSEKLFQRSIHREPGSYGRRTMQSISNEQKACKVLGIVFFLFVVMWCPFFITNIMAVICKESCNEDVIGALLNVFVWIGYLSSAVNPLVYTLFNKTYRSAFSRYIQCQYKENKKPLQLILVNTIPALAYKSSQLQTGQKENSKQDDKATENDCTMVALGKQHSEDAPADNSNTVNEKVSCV
T6 sequence (P35462 whole entry): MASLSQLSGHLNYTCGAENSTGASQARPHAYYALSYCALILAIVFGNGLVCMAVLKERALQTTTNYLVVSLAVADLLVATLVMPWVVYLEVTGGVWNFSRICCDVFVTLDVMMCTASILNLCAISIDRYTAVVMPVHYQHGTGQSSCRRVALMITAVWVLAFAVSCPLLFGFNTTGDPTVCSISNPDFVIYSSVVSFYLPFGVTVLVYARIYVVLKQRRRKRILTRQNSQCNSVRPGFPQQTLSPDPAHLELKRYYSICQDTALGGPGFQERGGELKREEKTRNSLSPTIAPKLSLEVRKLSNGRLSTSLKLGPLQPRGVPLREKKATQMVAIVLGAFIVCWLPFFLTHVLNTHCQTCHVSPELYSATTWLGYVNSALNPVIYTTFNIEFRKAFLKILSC
T7 sequence (P14416 1-414 isoform P14416-2): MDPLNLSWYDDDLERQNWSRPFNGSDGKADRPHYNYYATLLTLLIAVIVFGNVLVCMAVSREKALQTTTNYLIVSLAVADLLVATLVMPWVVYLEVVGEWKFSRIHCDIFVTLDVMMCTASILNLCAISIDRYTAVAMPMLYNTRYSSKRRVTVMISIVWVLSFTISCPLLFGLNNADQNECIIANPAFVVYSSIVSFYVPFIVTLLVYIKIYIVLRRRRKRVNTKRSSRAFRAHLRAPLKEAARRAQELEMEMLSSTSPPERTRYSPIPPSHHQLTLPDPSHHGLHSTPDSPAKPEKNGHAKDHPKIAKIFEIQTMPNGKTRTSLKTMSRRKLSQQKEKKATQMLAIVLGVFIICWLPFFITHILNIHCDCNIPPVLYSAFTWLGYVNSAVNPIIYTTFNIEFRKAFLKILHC
T3 sequence (P50130 whole entry): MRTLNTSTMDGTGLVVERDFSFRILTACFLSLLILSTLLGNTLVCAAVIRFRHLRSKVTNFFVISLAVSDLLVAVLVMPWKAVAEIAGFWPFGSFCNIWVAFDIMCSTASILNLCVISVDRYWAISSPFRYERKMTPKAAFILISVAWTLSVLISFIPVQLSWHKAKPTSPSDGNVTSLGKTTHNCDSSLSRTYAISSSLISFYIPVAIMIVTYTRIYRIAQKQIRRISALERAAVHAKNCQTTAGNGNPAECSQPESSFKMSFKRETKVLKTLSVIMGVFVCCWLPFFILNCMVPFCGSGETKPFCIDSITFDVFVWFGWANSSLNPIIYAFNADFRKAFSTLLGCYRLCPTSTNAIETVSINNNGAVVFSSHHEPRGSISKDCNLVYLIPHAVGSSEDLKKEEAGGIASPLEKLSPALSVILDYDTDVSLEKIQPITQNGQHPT

| pKi [5] | Compound | pKi [1] | selectivity ratio hD4.4 [1] | pEC50 (human 5-HT1a receptor; [11]) | Emax (human 5-HT1a receptor) | pKi [2] | selectivity ratio pD1 [2] | pKi [3] | selectivity ratio p5-HT1a [3] | pKi [4] | selectivity ratio p5-HT2 [4] | pKi [6] | selectivity ratio hD3 [6] | pKi [7] | selectivity ratio hD2short [7] | pKi [8] | selectivity ratio hD2long [8] | pKi [9] | selectivity ratio pα1 [10] | other results |
| --- | --- | --- | --- | --- | --- | --- | --- | --- | --- | --- | --- | --- | --- | --- | --- | --- | --- | --- | --- | --- |
| 7.19 | CCCN(CCc1cccs1)[C@@H]1CCc2cccc(OC)c2C1 [Compound 2a, (R)—N-(8-Methoxytetralin-2-yl)-N-propyl-N-[2-(2-thienyl)ethyl]amine] | 6.06 |  | 8.96 | 82% | 5.28 |  | 8.14 |  | 5.22 |  | 6.64 |  | 6.08 |  | 6.12 |  | 6.85 |  |  |
| 7.22 | CCCN(CCc1ccccc1)C1CCc2cccc(OC)c2C1 (stereo not drawn) [Compound 4, N-(8-Methoxytetralin-2-yl)-N-(2-phenylethyl)-N-propylamine] | 6.28 |  |  |  | 5.14 |  | 8.60 |  | 5.38 |  | 7.29 |  | 6.64 |  | 6.48 |  | 6.72 |  |  |
|  | CCCN(CCc1cc(C)ccc1C)C1CCc2cccc(O)c2C1 (stereo not drawn) [Compound 7, N-[2-(2,5-Dimethylphenyl)ethyl]-N-(8-hydroxytetralin-2-yl)-N-propylamine] | 6.31 | 290 |  |  | 5.62 | 1 400 | 8.77 | 1 | 5.77 | 1 000 | 6.89 | 76 | 7.05 | 53 | 6.85 | 82 | 7.11 | 46 | melting point: 102 °C |
|  | N-(2-Adamantylethyl)-N-(8-hydroxytetralin-2-yl)-N-propylamine [Compound 9] | 6.46 | 100 |  |  | 5.59 | 740 | 8.46 | 1 | 5.80 | 1600 | 7.41 | 11 | 7.92 | 3.4 | 7.80 | 4.6 | 6.24 | 160 | pEC50 (human 5-HT1a receptor): 8.72; intrinsic activity [% rel. to serotonin] (human 5-HT1a receptor; [35S]GTPγS incorporation relative to serotonin (=100%)): 88% |

| Compound | pKi [5] | pKi [1] | selectivity ratio hD4.4 [1] | pEC50 (human 5-HT1a receptor; [11]) | Emax (human 5-HT1a receptor) | pKi [2] | selectivity ratio pD1 [2] | pKi [3] | selectivity ratio p5-HT1a [3] | pKi [4] | selectivity ratio p5-HT2 [4] | pKi [6] | selectivity ratio hD3 [6] | pKi [7] | selectivity ratio hD2short [7] | pKi [8] | selectivity ratio hD2long [8] | pKi [9] | selectivity ratio pα1 [10] | other results |
| --- | --- | --- | --- | --- | --- | --- | --- | --- | --- | --- | --- | --- | --- | --- | --- | --- | --- | --- | --- | --- |
| CCCN(CCc1cccs1)[C@@H]1CCc2cccc(O)c2C1 [Compound 1a, (R)—N-(8-Hydroxytetralin-2-yl)-N-propyl-N-[2-(2-thienyl)ethyl]amine] | 7.25 | 7.00 | 190 | 8.72 to 9.19 and 9.19 | 103% | 5.06 | 17 000 | 9.28 | 1 | 5.60 | 4 800 | 7.00 | 190 | 6.59 | 500 | 6.62 | 460 | 6.19 | 1 200 | agonist activity at the human 5-HT1a receptor (human 5-HT1a receptor; in words): full agonist activity |
